Experimental data taken from patent US20240199628A1, “TETRAPYRROLE-BASED COMPOUNDS AND THEIR FOMULATIONS FOR ANTI-MICROBIAL THERAPY” (biolitec Unternehmensbeteiligungs II AG, priority 2021, published 2024).

Key:
[1] = test system: 25710_2.43-IMC (origin India, Clade C); assay: A3R5 assay, virus inhibition, HIV-1 IMC 25710_2.43; type: cell-based; details: Human immunodeficiency virus 1, 96 h, read-out: inhibition compared to the virus control
Description: (§1) Antiviral testing was performed using temoporfin. The organisms studied were replication competent HIV-1 infectious molecular env clones (IMC) in the A3R5 assay. Following IMC were used: (I) 398-71-F6_20-IMC (origin Tansania, Clade A), (II) X2278_C2_B6-IMC (origin Spain, Clade D), (III) 25710_2.43-IMC (origin India, Clade C) and (IV) CNE55-IMC (origin China, Clade […]). Virus specific original env sequences were cloned into the HIV-1 NL4-3 backbone (gene bank ID: M19921) sequence containing a Renilla reniformis luciferase reporter gene to measure the infectivity rate.
(§2) A3R5 cells are grown in RPMI1640 supplemented with 10% fetal calf serum, 25 mM HEPES, 50 μg/ml gentamycine and 1 mg/ml geneticin. […] Within the assay the A3R5 cells were added (plus 5 μg/ml DEAE-Dextran) to the temoporfin samples in the presence of the respective amount of IMC at 50,000 RLU equivalents. After 96 hrs incubation the read out of the A3R5 assays occurred. The decrease of the luminescence compared to the virus control was measured using Victor X3 luminometer (Perkin Elmer) and allowed the detection of a possible inhibitory effect of temoporfin against HIV-1 IMCs.

[2] = test system: CNE55-IMC (origin China, Clade CRF01_AR); assay: A3R5 assay, virus inhibition, HIV-1 IMC CNE55; type: cell-based; details: Human immunodeficiency virus 1, 96 h, read-out: inhibition compared to the virus control
Description: as §1, §2

[3] = test system: replication competent HIV-1 infectious molecular env clones (IMC); assay: A3R5 assay, all tested HIV-1 IMCs; type: cell-based; details: two independent runs, concentrations of 2.5 μM and 1.25 μM
Description: as §1, §2

[4] = test system: X2278_C2_B6-IMC (origin Spain, Clade D); assay: A3R5 assay, virus inhibition, HIV-1 IMC X2278_C2_B6; type: cell-based; details: 96 h, read-out: anti-HIV-1 effect (inhibition)
Description: as §1, §2

[5] = test system: 398-71-F6_20-IMC (origin Tansania, Clade A); assay: A3R5 assay, virus inhibition, HIV-1 IMC 398-71-F6_20; type: cell-based; details: Human immunodeficiency virus 1, 96 h, read-out: anti-HIV-1 effect (inhibition)
Description: as §1, §2

Staphylococcus aureus = assay: Antibacterial testing in submerged cultures (CFU/ml); type: cell-based; details: S. aureus
Description: The organisms studied were Staphylococcus aureus DSM 1104 and DSM 11729, gram positive, Klebsiella pneumoniae, gram negative, Enterobacter aerogenes, gram negative, and Acinetobacter baumannii, gram negative. For antibacterial testing in submerged cultures cultured cells are suspended in sterile phosphate-buffered saline (PBS), sterile PBS supplemented with 10% sterile horse serum, or sterile PBS supplemented with 10% sheep blood. The bacterial suspensions are placed into sterile black well plates with clear bottoms. Concentrations of photosensitizer used in the study were as follows: 1 μM, 10 μM, 100 μM, and 1 mM. After an incubation time period of 30 minutes, the samples are exposed to white light, with a power density and irradiation time resulting in an energy fluency of about 100 J/cm^2. Control samples contained no photosensitizer and are not exposed to light. The control samples for dark toxicity are only exposed to photosensitizer without any illumination. After irradiation, the samples are removed and suspended again in the culture media. The numbers of colony-forming units (CFU/ml) are enumerated after an adequate incubation time period.

[6] = test system: Staphylococcus aureus biofilms; assay: Antibacterial testing of bacterial biofilms (CFU/ml); type: cell-based, Staphylococcus aureus DSM1104; details: S. aureus biofilms (FIG. 1F)
Description: For antibacterial testing of bacterial biofilms the 96 pins of a transferable solid phase plates (TSP; Nunc-Immuno™ TSP with MaxiSorp™ surface) were used to generate the biofilms. The TSP plates were transferred in 96-well plates with 200 μl fresh overnight culture of Staphylococcus aureus DSM1104 cells and incubated at 35° C. about 20 hours by gentle shaking. Within this time the bacterial cells established biofilms on the pins. After removing of unattached cells by gentle washing with 250 μl of 0.9% NaCl solution the TSP plates with the biofilms on the pins were incubated with 250 μl of the photosensitizer solution or the solvent of the photosensitizer solution for control samples for 30 minutes in the dark. After incubation and another washing the pins were irradiated by white light, with a power density and irradiation time resulting in an energy fluence of about 100 J/cm^2. For the quantification of remaining attached cells, the pins were transferred into 250 μl of 0.9% NaCl solution by gentle sonication. The samples are removed, suspended in the culture media, and the numbers of colony-forming units (CFU/ml) are enumerated after an adequate incubation time period.

With `Oc1cccc(-c2c3nc(c(-c4cccc(O)c4)c4ccc([nH]4)c(-c4cccc(O)c4)c4nc(c(-c5cccc(O)c5)c5ccc2[nH]5)CC4)C=C3)c1` [Temoporfin, 5,10,15,20-tetrakis(3-hydroxyphenyl)chlorin] the inhibition at 2.5 µM [1] was 42%, the inhibition at 2.5 µM [2] was 22% and the anti-HIV activity [3] was “anti-HIV activity was observed”. It also gave an inhibition at 2.5 µM [4] of 38% and an inhibition at 2.5 µM [5] of 35%.

For “[5,10,15,20-tetrakis(3-hydroxyphenyl)porphyrinato]zinc(II)”, the antibacterial activity (Staphylococcus aureus; in the absence of light (FIG. 1A)) was “high antibacterial activity”, the antibacterial activity (Staphylococcus aureus; in the presence of complex media (serum) (FIG. 1A, middle)) was “activity” and the antibacterial activity (Staphylococcus aureus; in the presence of whole blood (FIG. 1A, right)) was “activity”. The “antibacterial activity against biofilms” value [6] was “active”.
